Experimental data as given in PubChem BioAssay AID1845212 (Molecular Pharmacology Branch, DTP, NCI, 2023).
Activity calls are given as the source filed them. The calls were made as follows: active = viability on the fitted dose curve at most 10% of control; inactive = the rest.

Test system: NCI-H719 tumor spheroids, viability
Assay: Anticancer human tumor NCI-H719 cell line growth inhibition;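 as to IC50: spheroids exposed to compounds for seven days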;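 as to viability, T/C: spheroids exposed to compounds for seven days; percent viability relative to DMSO vehicle control as 100%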
Details: spheroids with HUVEC and MSC; for IC50: curve of first compound; for viability, T/C: stronger effect = lower value
Method in brief: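 Complex tumor spheroids combined malignant cells with endothelial cells and mesenchymal stem cells. DNA-damaging drugs and DNA repair inhibitors were tested alone and in combination, at half-log dilutions down from clinical Cmax (top 10 microM if Cmax unknown), 0.25% DMSO final.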

[1] = second compound 1 µM, first compound 0.0316 µM
[2] = second compound 1 µM, first compound 0.1 µM
[3] = second compound 1 µM, first compound 0.316 µM
[4] = second compound 1 µM, first compound 1 µM
[5] = second compound 1 µM, first compound 3.16 µM
[6] = second compound 1 µM, first compound 10 µM
[7] = second compound 3.16 µM, first compound 0.0316 µM
[8] = second compound 3.16 µM, first compound 0.1 µM
[9] = second compound 3.16 µM, first compound 0.316 µM
[10] = second compound 3.16 µM, first compound 1 µM
[11] = second compound 3.16 µM, first compound 3.16 µM
[12] = second compound 3.16 µM, first compound 10 µM
[13] = second compound 10 µM, first compound 0.0316 µM
[14] = second compound 10 µM, first compound 0.1 µM
[15] = second compound 10 µM, first compound 0.316 µM
[16] = second compound 10 µM, first compound 1 µM
[17] = second compound 10 µM, first compound 3.16 µM
[18] = second compound 10 µM, first compound 10 µM
[19] = second compound 31.6 µM, first compound 0.0316 µM
[20] = second compound 31.6 µM, first compound 0.1 µM
[21] = second compound 31.6 µM, first compound 0.316 µM
[22] = second compound 31.6 µM, first compound 1 µM
[23] = second compound 31.6 µM, first compound 3.16 µM
[24] = second compound 31.6 µM, first compound 10 µM
[25] = second compound 100 µM, first compound 0.0316 µM
[26] = second compound 100 µM, first compound 0.1 µM
[27] = second compound 100 µM, first compound 0.316 µM
[28] = second compound 100 µM, first compound 1 µM
[29] = second compound 100 µM, first compound 3.16 µM
[30] = second compound 100 µM, first compound 10 µM

Compound | IC50 (second compound 1 µM) | IC50 (second compound 3.16 µM) | IC50 (second compound 10 µM) | IC50 (second compound 31.6 µM) | IC50 (second compound 100 µM) | viability, T/C [1] | viability, T/C [2] | viability, T/C [5] | viability, T/C [6] | viability, T/C [7] | viability, T/C [8] | viability, T/C [9] | viability, T/C [10] | viability, T/C [11] | viability, T/C [12] | viability, T/C [13] | viability, T/C [15] | viability, T/C [16] | viability, T/C [17] | viability, T/C [18] | further results
CC1COCCN1c1cc(-c2ccnn2C)c2ccnc(-c3ccn[nH]3)c2n1 (stereo not given) + Cn1nnc2c(C(N)=O)ncn2c1=O | 0.0811 µM | 0.0602 µM | 0.0638 µM | 0.0389 µM | < 0.0316 µM | 60.4% | 47.4% | 7.33% | 9.3% | 61.2% | 40.7% | 23.1% | 10.2% | 7.62% | 9.51% | 63.1% | 23.3% | 9.97% | 7.59% | 8.83% | viability, T/C [3]: 27.2%; viability, T/C [4]: 13.5%; viability, T/C [14]: 41%; viability, T/C [19]: 54.5%; viability, T/C [20]: 30.4%; viability, T/C [21]: 18.1%; viability, T/C [22]: 8.01%; viability, T/C [23]: 6.53%; viability, T/C [24]: 9.03%; viability, T/C [25]: 26.8%; viability, T/C [26]: 14.7%; viability, T/C [27]: 9.58%; viability, T/C [28]: 5.42%; viability, T/C [29]: 17.8%; viability, T/C [30]: 7.51%
COc1cc(C)[nH]c(=O)c1CN1CCc2c(Cl)cc(C(OC)C3COC3)c(Cl)c2C1=O (stereo not given) + Cn1nnc2c(C(N)=O)ncn2c1=O | > 10 µM | > 10 µM | > 10 µM | > 10 µM | > 10 µM | 101% | 101% | 108% | 103% | 103% | 108% | 119% | 117% | 112% | 110% | 110% | 122% | 121% | 125% | 118% | outcome [3]: inactive; viability, T/C [4]: 111%; viability, T/C [14]: 110%; viability, T/C [19]: 118%; viability, T/C [20]: 111%; viability, T/C [21]: 111%; viability, T/C [22]: 125%; viability, T/C [23]: 118%; viability, T/C [24]: 119%; viability, T/C [25]: 109%; viability, T/C [26]: 101%; viability, T/C [27]: 99.7%; viability, T/C [28]: 109%; viability, T/C [29]: 115%; viability, T/C [30]: 109%
Cc1cc(C)c(CNC(=O)c2cc(-c3ccc(CN4CCOCC4)cc3)cc3c2cnn3C2CCCC2)c(=O)[nH]1 + Cn1nnc2c(C(N)=O)ncn2c1=O | > 10 µM | > 10 µM | > 10 µM | > 10 µM | > 10 µM | 96.9% | 105% | 94% | 76.5% | 105% | 102% | 108% | 107% | 92.2% | 82.2% | 105% | 108% | 110% | 94.3% | 94.5% | viability, T/C [3]: 100%; outcome [4]: inactive; outcome [14]: inactive; viability, T/C [19]: 113%; viability, T/C [20]: 119%; viability, T/C [21]: 123%; viability, T/C [22]: 108%; viability, T/C [23]: 94.6%; viability, T/C [24]: 85.7%; viability, T/C [25]: 101%; viability, T/C [26]: 108%; viability, T/C [27]: 103%; viability, T/C [28]: 103%; viability, T/C [29]: 107%; viability, T/C [30]: 76.8%
[2H]c1nc(C)nc([2H])c1-c1cc(NC[C@@H](C)c2cccc3c(C(=O)NC)ccnc23)ncn1 + Cn1nnc2c(C(N)=O)ncn2c1=O | > 10 µM | > 10 µM | > 10 µM | > 10 µM | > 10 µM | 93.8% | 101% | 90.6% | 87.8% | 104% | 90.1% | 95.3% | 94.4% | 98.9% | 98.7% | 103% | 90.4% | 96.8% | 89.8% | 94.2% | viability, T/C [3]: 90.4%; viability, T/C [4]: 99.2%; viability, T/C [14]: 97%; viability, T/C [19]: 101%; viability, T/C [20]: 105%; viability, T/C [21]: 101%; viability, T/C [22]: 104%; viability, T/C [23]: 109%; viability, T/C [24]: 82.4%; viability, T/C [25]: 87.1%; viability, T/C [26]: 84.2%; viability, T/C [27]: 68.6%; viability, T/C [28]: 70.3%; viability, T/C [29]: 68.2%; viability, T/C [30]: 62.8%
